Tests used:
[1] = system: MDA-MB-231 (breast cancer) cell line; assay: Cell growth inhibition experiment (SRB), MDA-MB-231; type: cell-based, human; conditions: Homo sapiens, MDA-MB-231, 96 h, 96 hours incubation
Description: (§1) The cell lines below were used in order to confirm the efficacy of the compounds synthesized in Examples 1 to 60. Human PANC-1 (pancreatic cancer) and MDA-MB-231 (breast cancer) cell lines were obtained from the American Type Culture Collection (ATCC; Manassas, Va.); and HN31 (head and neck cancer) and UMRC2 (kidney cancer) cell lines were secured from the United States National Institutes of Health (Bethesda, Md.). The MDA-MB-231, UMRC2, HN31, and PANC-1 cell lines were cultured in Dulbecco modified Eagle medium (DMEM; Invitrogen, Carlsbad, Calif.) containing FBS (10%), HEPES (10 mM), penicillin (100 U/mL), and streptomycin (100 μg/mL). All cell lines were cultured in an incubator (37° C., 5% CO2).
(§2) The 4-(aryl)-N-(3-alkoxyfuro[2,3-b]pyrazin-2-yl)-piperazine-1-carboxamide derivative compounds synthesized according to Examples 1 to 60 of the present invention were treated with various human tissue-derived cancer cell lines cultured according to Experimental Example 1, and thus the inhibitory effect of the growth of human cancer cells was confirmed. The cell growth inhibition experiment was conducted using the sulforhodamine B (SRB) technique (Skehan et al., J. National Cancer Institute, 1990, 82: 1107-1112). Specifically, each cell line was seeded in a 96-well plate at a density of 2 to 3×10^3 cells/well, cultured overnight, and then treated with the 4-(aryl)-N-(3-alkoxyfuro[2,3-b]pyrazin-2-yl)-piperazine-1-carboxamide derivative compounds of the present invention. The experiment was repeated 3 times for each compound. Cells treated with each compound were additionally incubated for 96 hours, fixed with 10% trichloroacetic acid (TCA), and then left at 4° C. for 1 hour. The resultant was washed 3 times with distilled water. Thereafter, each cell was treated with 0.4% sulforhodamine B dissolved in 1% acetic acid, stained for 30 minutes, and then washed 4 times with 1% acetic acid. The resultant was dried in the air. After shaking the resultant in Tris solution (10 mM) for 5 minutes, the absorbance was measured at 530 nm using a Benchmark Plus Microplate reader (Bio-Rad Laboratories, Hercules, Calif.).
(§3) In order to convert the OD530 value to the number of viable cells per each well, the measured OD530 value was compared to the standard OD530-vs.-cell number curve of each cell line. The percent survival was calculated using the following formula: % survival=Nlive cells(test)/Nlive cells(control)×100

[2] = system: PANC-1 (pancreatic cancer) cell line; assay: Cell growth inhibition experiment (SRB), PANC-1; type: cell-based; conditions: Homo sapiens, PANC-1, 96 h, 96 hours incubation
Description: as §1, §2, §3

HEK293 = assay: Cell growth inhibition experiment (SRB), HEK293; type: cell-based, human; conditions: Homo sapiens, HEK293, 96 h, 96 hours incubation, read-out: IC50 (μM) for cancer cell line HEK293
Description: as §2, §3

[3] = system: UMRC2 (kidney cancer) cell line; assay: Cell growth inhibition experiment (SRB), UMRC2; type: cell-based, human; conditions: Homo sapiens, UMRC2, 96 h, 96 hours incubation
Description: as §1, §2, §3

SK-OV-3 = assay: Cell growth inhibition experiment (SRB), SK-OV-3; type: cell-based, human; conditions: Homo sapiens, SK-OV-3, 96 h, 96 hours incubation, read-out: IC50 (μM) for cancer cell line SK-OV-3
Description: as §2, §3

[4] = system: HN31 (head and neck cancer) cell line; assay: Cell growth inhibition experiment (SRB), HN31; type: cell-based, human; conditions: Homo sapiens, 96 h, 96 hours incubation
Description: as §1, §2, §3

A549 = assay: Cell growth inhibition experiment (SRB), A549; type: cell-based; conditions: Homo sapiens, A549, 96 h, 96 hours incubation, read-out: IC50 (μM) for cancer cell line A549
Description: as §2, §3

HUVEC = assay: Cell growth inhibition experiment (SRB), HUVEC; type: cell-based, human; conditions: Homo sapiens, HUVEC, 96 h, 96 hours incubation, read-out: IC50 (μM) […]
Description: as §2, §3

HT29 = assay: Cell growth inhibition experiment (SRB), HT29; type: cell-based, human; conditions: Homo sapiens, HT-29, 96 h, 96 hours incubation, read-out: IC50 (μM) for cancer cell line HT29
Description: as §2, §3

| SMILES | IC50 [1] | IC50 [2] | IC50 (HEK293) | IC50 [3] | IC50 (SK-OV-3) | IC50 [4] | IC50 (A549) | IC50 (HUVEC) | IC50 (HT29) |
| --- | --- | --- | --- | --- | --- | --- | --- | --- | --- |
| CCOc1nc2occc2nc1NC(=O)N1CCN(c2cc(OC)cc(OCCN(C)C)c2)CC1 [Example 14, 4-(3-(2-(Dimethylamino)ethoxy)-5-methoxyphenyl)-N-(3-ethoxyfuro[2,3-b]pyrazin-2-yl)piperazine-1-carboxamide] | 0.34 µM | 1.23 µM | < 2.5 µM | 0.68 µM | < 2.5 µM | 0.65 µM | 1.85 µM | < 2.5 µM | < 2.5 µM |
| COc1nc2oc(C)cc2nc1NC(=O)N1CCN(c2cc(F)cc(F)c2)CC1 [Example 27, 4-(3,5-Difluorophenyl)-N-(3-methoxy-6-methylfuro[2,3-b]pyrazin-2-yl)piperazine-1-carboxamide] | 0.56 µM | < 2.5 µM | < 2.5 µM | 1.13 µM | < 2.5 µM | < 2.5 µM | < 2.5 µM | < 2.5 µM | < 2.5 µM |
| CCOc1nc2occc2nc1NC(=O)N1CCN(c2cccc(OC(F)(F)F)c2)CC1 [Example 20, N-(3-Ethoxyfuro[2,3-b]pyrazin-2-yl)-4-(3-(trifluoromethoxy)phenyl)piperazine-1-carboxamide] | 0.25 µM | 0.36 µM | 0.12 µM | 1.63 µM | 0.22 µM | 0.36 µM | 0.24 µM | 0.21 µM | 0.62 µM |
| COc1cc(OCCN(C)C)cc(N2CCN(C(=O)Nc3nc4cc(C)oc4nc3OC)CC2)c1 [Example 24, 4-(3-(2-(Dimethylamino)ethoxy)-5-methoxyphenyl)-N-(3-methoxy-6-methylfuro[2,3-b]pyrazin-2-yl)piperazine-1-carboxamide] | 0.12 µM | 0.44 µM | 0.25 µM | 0.36 µM | 0.12 µM | < 2.5 µM | 0.87 µM | < 2.5 µM | 0.36 µM |
| COc1nc2oc(C)cc2nc1NC(=O)N1CCN(c2cc(C(F)(F)F)cc(C(F)(F)F)c2)CC1 [Example 29, 4-(3,5-Bis(trifluoromethyl)phenyl)-N-(3-methoxy-6-methylfuro[2,3-b]pyrazin-2-yl)piperazine-1-carboxamide] | < 2.5 µM | < 2.5 µM | < 2.5 µM | < 2.5 µM | < 2.5 µM | < 2.5 µM | < 2.5 µM | < 2.5 µM | < 2.5 µM |
| COc1cc(F)cc(N2CCN(C(=O)Nc3nc4ccoc4nc3OC)CC2)c1 [Example 3, 4-(3-Fluoro-5-methoxyphenyl)-N-(3-methoxyfuro[2,3-b]pyrazin-2-yl)piperazine-1-carboxamide] | 0.24 µM | 0.56 µM | < 2.5 µM | 0.06 µM | 0.85 µM | 0.71 µM | 2.11 µM | < 2.5 µM | 1.53 µM |
| COc1nc2oc(C)cc2nc1NC(=O)N1CCN(c2cc(C)cc(C)c2)CC1 [Example 25, 4-(3,5-Dimethylphenyl)-N-(3-methoxy-6-methylfuro[2,3-b]pyrazin-2-yl)piperazine-1-carboxamide] | 0.15 µM | 0.08 µM | 0.36 µM | < 2.5 µM | 0.63 µM | 0.17 µM | 0.22 µM | 0.13 µM | 0.25 µM |
| COc1cc(F)cc(N2CCN(C(=O)Nc3nc4cc(C)oc4nc3OC)CC2)c1 [Example 23, 4-(3-Fluoro-5-methoxyphenyl)-N-(3-methoxy-6-methylfuro[2,3-b]pyrazin-2-yl)piperazine-1-carboxamide] | 0.36 µM | 0.44 µM | 0.35 µM | 0.44 µM | 0.36 µM | 0.28 µM | 0.63 µM | 0.45 µM | 0.28 µM |
| CCOc1nc2oc(Cl)cc2nc1NC(=O)N1CCN(c2cc(F)cc(C(F)(F)F)c2)CC1 [Example 58, N-(6-Chloro-3-ethoxyfuro[2,3-b]pyrazin-2-yl)-4-(3-fluoro-5-(trifluoromethyl)phenyl)piperazine-1-carboxamide] | < 2.5 µM | < 2.5 µM | < 2.5 µM | < 2.5 µM | < 2.5 µM | < 2.5 µM | < 2.5 µM | < 2.5 µM | < 2.5 µM |
| CCOc1nc2oc(Cl)cc2nc1NC(=O)N1CCN(c2cc(C(F)(F)F)cc(C(F)(F)F)c2)CC1 [Example 59, 4-(3,5-Bis(trifluoromethyl)phenyl)-N-(6-chloro-3-ethoxyfuro[2,3-b]pyrazin-2-yl)piperazine-1-carboxamide] | 1.68 µM | 1.98 µM | < 2.5 µM | 1.87 µM | < 2.5 µM | < 2.5 µM | < 2.5 µM | < 2.5 µM | < 2.5 µM |
| CCOc1nc2occc2nc1NC(=O)N1CCN(c2cc(C)cc(OC)c2)CC1 [Example 12, N-(3-Ethoxyfuro[2,3-b]pyrazin-2-yl)-4-(3-methoxy-5-methylphenyl)piperazine-1-carboxamide] | 0.05 µM | 0.24 µM | 1.55 µM | 0.14 µM | 1.29 µM | 0.33 µM | 1.28 µM | 0.27 µM | 1.3 µM |
| COc1cc(C)cc(N2CCN(C(=O)Nc3nc4cc(Cl)oc4nc3OC)CC2)c1 [Example 42, N-(6-Chloro-3-methoxyfuro[2,3-b]pyrazin-2-yl)-4-(3-methoxy-5-methylphenyl)piperazine-1-carboxamide] | 0.36 µM | 1.23 µM | 1.37 µM | 1.68 µM | < 2.5 µM | 1.68 µM | 1.87 µM | 1.47 µM | 1.87 µM |
| COc1cc(OCCN(C)C)cc(N2CCN(C(=O)Nc3nc4cc(Cl)oc4nc3OC)CC2)c1 [Example 44, N-(6-Chloro-3-methoxyfuro[2,3-b]pyrazin-2-yl)-4-(3-(2-(dimethylamino)ethoxy)-5-methoxyphenyl)piperazine-1-carboxamide] | 0.43 µM | 0.61 µM | 0.71 µM | 0.38 µM | < 2.5 µM | 0.53 µM | 0.36 µM | 0.66 µM | 0.87 µM |
| CCOc1nc2occc2nc1NC(=O)N1CCN(c2cc(C)cc(C)c2)CC1 [Example 15, 4-(3,5-Dimethylphenyl)-N-(3-ethoxyfuro[2,3-b]pyrazin-2-yl)piperazine-1-carboxamide] | 0.24 µM | 1.12 µM | < 2.5 µM | 0.25 µM | < 2.5 µM | 0.78 µM | < 2.5 µM | < 2.5 µM | < 2.5 µM |
| COc1nc2oc(Cl)cc2nc1NC(=O)N1CCN(c2cc(C)cc(F)c2)CC1 [Example 46, N-(6-Chloro-3-methoxyfuro[2,3-b]pyrazin-2-yl)-4-(3-fluoro-5-methylphenyl)piperazine-1-carboxamide] | 1.68 µM | 1.94 µM | < 2.5 µM | 1.35 µM | < 2.5 µM | 1.83 µM | < 2.5 µM | < 2.5 µM | < 2.5 µM |
